Experimental data: publication PMC12238850, “Molecular determinants for recognition of serotonylated chromatin” (Nucleic Acids Research, 2025)
Where two headings read alike, the source gives them in different places. One block for each molecule: values may come before it.

Legend:
[1] = target: T1, Taf3-PHD (residues 857–924) (Mus musculus, UniProt Q5HZG4); test: NMR titration line shape analysis (TITAN), wild-type Taf3-PHD; format: binding
T1 construct: PHD finger of Taf3 (residues 857–924) in NMR buffer; GST (N, cleaved yes); made in house; host or cells: E. coli BL21(DE3), M9 minimal medium (13C/15N)
T1 sequence (Q5HZG4 857-924): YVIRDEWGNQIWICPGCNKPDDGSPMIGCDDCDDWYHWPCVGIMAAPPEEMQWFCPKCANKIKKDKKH
Description: The ^13C- and ^15N-labelled Taf3-PHD NMR samples were purified as described above, with minor differences. A single colony of freshly transformed BL21(DE3) E. coli was grown in a synthetic M9 minimal medium (6.0 g/l Na2HPO4·2H2O, 3.0 g/l KH2PO4, 0.5 g/l NaCl, 25 mg/l MgSO4, 290 μg/l CaCl2, 1 μg/l FeSO4·7H2O, 270 μg/l ZnCl2, and 5 mg/l thiamine) containing 2.0 g/l ^13C-glucose as the only carbon source and 0.5 g/l ^15NH4Cl as the sole nitrogen source. Protein expression, lysis, and loading to Glutathione Sepharose™ column were performed as described above. The GST-tag was removed through on-column thrombin digestion by loading excess thrombin (SERVA) in wash buffer followed by overnight digestion at 4°C. The cleaved PHD moiety with a […] N-terminal extension (Gly–Ser–His–Met–Ala–Met–Ala) remaining from the thrombin cleavage site was collected from the flow-through and further purified in a Mono Q™ 10/100 GL as before and subsequently loaded to a Superdex-75 HiLoad 16/600 gel filtration column in NMR buffer (20 mM KPi, pH 7.0, 150 mM KCl, 10 μM ZnCl2) (Supplementary Fig. S1).
All data were recorded at 298 K on a Bruker Avance III HD 900 MHz spectrometer equipped with a cryoprobe, unless noted otherwise. Sample for assignment verification contained 0.3 mM ^13C- and ^15N-labelled PHD finger of Taf3 (residues 857–924) in NMR buffer (20 mM KPi, pH 7.0, 150 mM KCl, 10 μM ZnCl2, 0.01% NaN3, 10% D2O) in a 5-mm NMR tube. Samples for peptide interaction studies contained 0.19 mM ^13C- and ^15N-labelled PHD in NMR buffer in 3-mm NMR tubes. Lyophilized peptides were dissolved in NMR buffer including 1 mM sodium 3-(trimethylsilyl)tetradeuteriopropanionate (TSP) into 20 mM stock solutions. Upon dilution to 1 mM, all peptide solutions were at pH 7.0 in NMR buffer. Peptide concentrations were determined by comparing the integral of the Thr methyl signal (from T3, T6, and T11, total nine protons) to that of TSP using a quantitative 1D experiment (recycle delay 60 s) recorded at a Bruker Avance III 600 MHz spectrometer. Saturated complexes with H3K4me1/H3K4me2/H3K4me3 peptides with and without H3Q5ser were made by adding peptide to a 0.7 mM final concentration (3.6 equiv.). […] Additional samples were prepared using 30%, 50%, 80%, and 160% equiv. of peptide. All spectra were recorded and processed using Bruker Topspin and analysed using NMR-FAM Sparky and Poky.
For the H3K4me2 complexes, the resonance of G879 was excluded due to overlap and that of K875 was included. Spectra were processed using NMRPipe using exponential line broadening of 10/15 Hz in the direct/indirect dimension of the free induction decay before Fourier transform. Data were fit against a 1:1 binding model that also optimizes the ligand concentration to compensate for concentration errors. Fitting assumed an HSQC experiment using 1.2 ms for the first zz-filter delays and an additional 0.6 ms evolution at the start and end of t1 that accommodated the echo/anti-echo gradient. The average koff value and standard error from a bootstrap analysis based on 100 replicas are reported. The 95% confidence limits were estimated using a grid search fixing koff allowing for an ∼3% increase in the final residuals as based on the F-statistic given the degrees of freedom. For each koff value, the KD for the H3K4me3 peptide was restrained to fall within 100 and 400 nM to enforce compatibility to previous reported affinity to avoid unrealistically high fitted KD values at higher koff values. Of note, the quality of the fit at the confidence limit edges is visibly worse than the best fit, particularly for the high koff side. For the H3K4me3Q5ser peptide, no restraint on KD was necessary. For the H3K4me2 peptides, the KD was restrained to 5 μM maximum. Without these upper bounds for KD, slightly wider confidence limits for koff are found.

[2] = system: TFIID; test: Histone peptide pull-down qMS, HeLa nuclear extract; format: binding, HeLa cells; conditions: biotinylated H3 (1–13) peptides, overnight at 4°C, 300 mM NaCl, pH 7.9, qMS, FDR 0.1
Description: (§1) Nuclear extracts of HeLa cells were prepared using a modified version of the Dignam procedure. Cytosolic and nuclear separation was validated by immunoblot using the following antibodies: for TBP the 20C7 in house mouse monoclonal and for Tubulin the DM1A monoclonal from Calbiochem (CP06) (Supplementary Fig. S5A). Biotinylated H3 (1–13) peptides immobilized on Dynabeads™ M-280 Streptavidin (Invitrogen) were incubated on a rotating wheel with 1 mg of HeLa nuclear extract overnight at 4°C in binding buffer [20 mM HEPES–KOH, pH 7.9, 300 mM NaCl, 20% glycerol, 2 mM MgCl2, 0.2 mM ethylenediaminetetraacetic acid, 0.1% NP-40, 0.5 mM DTT, and 1× cOmplete™ Protease Inhibitor Cocktail (Roche)]. The beads were then washed two times with binding buffer containing 0.5% NP-40, two times with phosphate buffered saline (PBS) containing 0.5% NP-40, and two times with plain PBS. On-bead digestion of bound proteins was performed overnight at 22°C with 0.1 μg/ml of trypsin in elution buffer (100 mM Tris–HCl, pH 7.5, 2 M urea, 10 mM DTT). […] A third of the final elution was analysed as described in [44, 45] with minor changes. For nanoflow-HPLC–MS/MS samples were analysed on an Orbitrap Fusion Lumos mass spectrometer coupled to an Easy nano-LC 1200 HPLC (Thermo Fisher Scientific). […]

[3] = target: TAF3-PHD; conditions: read-out: expected dissociation constant (KD); cited from earlier work
Description: An important link between H3K4me3 and pol II is formed by the basal transcription factor TFIID [[32], [35–37]]. TFIID is able to engage with active promoters by DNA contacts as well as by two histone-binding domains: the double bromodomains of TAF1 engaging acylated histones and the TAF3-PHD finger binding H3K4me3 [[32], [35–37]]. […] Binding of ... || All data were recorded at 298 K on a Bruker Avance III HD 900 MHz spectrometer equipped with a cryoprobe, unless noted otherwise. Sample for assignment verification contained 0.3 mM ^13C- and ^15N-labelled PHD finger of Taf3 (residues 857–924) in NMR buffer (20 mM KPi, pH 7.0, 150 mM KCl, 10 μM ZnCl2, 0.01% NaN3, 10% D2O) in a 5-mm NMR tube. Samples for peptide interaction studies contained 0.19 mM ^13C- and ^15N-labelled PHD in NMR buffer in 3-mm NMR tubes. Lyophilized peptides were dissolved in NMR buffer including 1 mM sodium 3-(trimethylsilyl)tetradeuteriopropanionate (TSP) into 20 mM stoc ... || Overall, we propose that serotonin recognition is governed by edge–face CH–π interactions with either aromatic residues or prolines. Consistent with our proposal, CHD1 contains aromatic residues at positions Y295 and Y406, either of which could orient to engage with H3Q5ser explaining the preference of CHD1 for serotonin (Supplementary Fig. S15C). […]

[4] = target: 13C- and 15N-labelled Taf3-PHD finger (residues 857-924), GST removed by thrombin (Mus musculus) (UniProt Q5HZG4); test: NMR titration; 0.19 mM 13C,15N-labelled Taf3-PHD, peptide added (30% to 3.6 equiv.); 298 K; 20 mM KPi pH 7.0, 150 mM KCl, 10 μM ZnCl2; koff from TITAN line-shape fits (0%, 50%, 150% peptide), 1:1 model
[5] = target: Taf3-PHD P881E–W894F used for NMR titrations (Mus musculus) (UniProt Q5HZG4); test: as above
[6] = system: BPTF; test: Histone peptide pull-down qMS, HeLa nuclear extract; format: binding, HeLa cells; conditions: biotinylated H3 (1–13) peptides, FDR 0.1
Description: as §1

[7] = target: T2, Taf3-PHD (Mus musculus Taf3 residues 857-924), 13C- and 15N-labelled, GST removed (Mus musculus, UniProt Q5HZG4 857-924, 13C- and 15N-labelled); test: solution NMR structure; 0.88 mM 13C,15N Taf3-PHD with 0.88 mM H3K4me3Q5ser peptide; 20 mM KPi pH 7.0, 4 mM KCl, 10 uM ZnCl2; NOESY at 293 K; NOE distance restraints imposed with HADDOCK on the structure PDB 2K17; conditions: both partners purified
T2 construct: Taf3 PHD finger, Mus musculus, residues 857-924; numbering of mouse Taf3 isoform 1, UniProt Q5HZG4; also called Taf3-PHD finger; PHD domain; source: E. coli BL21(DE3) in M9 minimal medium, purified (Glutathione Sepharose, on-column thrombin, Mono Q, Superdex-75); not shown: GST, N-terminal, cleaved
T2 sequence: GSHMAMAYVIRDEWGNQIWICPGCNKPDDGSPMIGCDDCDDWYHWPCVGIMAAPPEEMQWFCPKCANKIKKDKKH

Molecule: C[C@H](N)C(=O)N[C@@H](CCCNC(=N)N)C(=O)N[C@H](C(=O)N[C@@H](CCCCN(C)C)C(=O)N[C@@H](CCC(=O)NCCc1c[nH]c2ccc(O)cc12)C(=O)N[C@H](C(=O)N[C@@H](C)C(=O)N[C@@H](CCCNC(=N)N)C(=O)N[C@@H](CCCCN)C(=O)N[C@@H](CO)C(=O)N[C@H](C(=O)NCC(N)=O)[C@@H](C)O)[C@@H](C)O)[C@@H](C)O [H3K4me2Q5ser]
koff ([1]; pH 7): 71 ± 2 s⁻¹
koff ([1]; pH 7, read-out: koff 95% confidence limits): 56 to 90 s⁻¹
TFIID preference for H3Q5ser peptides [2]: TFIID enrichment was most pronounced

Molecule: H-ARTK(Me)QTARKSTG-NH2 [H3K4me1, H3 tail peptide monomethylated at lysine 4]
Kd [3]: > 200 µM

Molecule: H-ARTKQ(ser)TARKSTG-NH2 [H3Q5ser, H3 tail peptide, K4 unmethylated, serotonylated glutamine 5]
BPTF preference for H3Q5ser peptides [6]: enhanced binding to H3Q5ser compared to the unmodified H3 peptide

B1: H3K4me3Q5ser peptide, non-biotinylated: H-ARTK(Me3)Q(ser)TARKSTG-NH2 (peptide)
peptide: H-ARTK(Me3)Q(serotonyl)TARKSTG-NH2
notes: histone H3 N-terminal tail, residues 1-12 of H3K4me3Q5ser; also called H3K4me3Q5ser ligand; H3 peptide; source: synthetic peptide
binding result [7]: binds

Further lines, with some results ahead:

koff ([1]; NMR line shape fit (TITAN), 298 K, 20 mM KPi, pH 7.0, 150 mM KCl, 1:1 model, average ± standard error from bootstrap, 100 replicas, read-out: koff): 207 ± 10 s⁻¹
koff ([1]; NMR line shape fit (TITAN), 298 K, pH 7.0, grid search, read-out: koff 95% confidence limits): 160 to 250 s⁻¹
Molecule: C[C@H](N)C(=O)N[C@@H](CCCNC(=N)N)C(=O)N[C@H](C(=O)N[C@@H](CCCCN(C)C)C(=O)N[C@@H](CCC(N)=O)C(=O)N[C@H](C(=O)N[C@@H](C)C(=O)N[C@@H](CCCNC(=N)N)C(=O)N[C@@H](CCCCN)C(=O)N[C@@H](CO)C(=O)N[C@H](C(=O)NCC(N)=O)[C@@H](C)O)[C@@H](C)O)[C@@H](C)O [H3K4me2]
Kd [3]: 1.7 µM

koff [4]: 207 s⁻¹
Molecule: H3K4me2 histone H3 tail peptide (non-biotinylated)

koff [4]: 71 s⁻¹
Molecule: H3K4me2Q5ser histone H3 tail peptide (non-biotinylated)

koff [5]: 29.6 s⁻¹
koff [4]: 48.8 s⁻¹
Molecule: H3K4me3 histone H3 tail peptide (non-biotinylated)

koff [5]: 24.2 s⁻¹
koff [4]: 16.8 s⁻¹
Molecule: H3K4me3Q5ser histone H3 tail peptide (non-biotinylated)
